Measured values taken from publication PMC6321172, “Analysis of Vipadenant and Its In Vitro and In Vivo Metabolites via Liquid Chromatography-Quadrupole-Time-of-Flight Mass Spectrometry” (Pharmaceutics, 2018).
Like-named read-outs stand apart in the source and are kept apart here.

Assays:
[1] = Rat pharmacokinetic study after IV or PO administration; type: in vivo; conditions: for Cmax: read-out: C0 or Cmax; for Vd: read-out: Vss
Protocol: Twenty microliters of the rat pharmacokinetics samples were placed in cluster tubes. As a make-up solution, 4 μL of DMSO was added to the cluster tube and 100 μL of ACN containing ISTD (verapamil) was also added. The mixture was capped, gently shaken for approximately 1 min and was then centrifuged for 5 min at 12,000 rpm (4 °C). Following the centrifugation, 50 μL supernatant was transferred to a clean test tube and was diluted with 100 μL of distilled water. The resulting mixture was then transferred to an LC-vial and 10 μL was injected to the LC-QTOF-MS. The same procedure was also applied to the STD samples and QC samples.
Data acquisition and LC-QTOF-MS operation was conducted using Analyst® TF Version 1.6 (Sciex). MultiQuant® Version 2.1.1 (Sciex) was used for the peak integration for vipadenant quantification. PeakView® Version 2.2 and MetabolitePilot™ Version 2.0.2 were used for the structural elucidation of vipadenant metabolites. […] Pharmacokinetic parameters were calculated in a non-compartmental analysis using WinNonlin® version 8.0.0 (Certara, Princeton, NJ, USA).
Male sprague-dawley rats (300 ± 10 g) were purchased from the Samtako Biokorea Co. (Gyeonggi, Korea) and housed in groups of 3~4 per cage and given standard rodent chow. […] Rats were distributed into four different groups (three rats per group; 1 & 2 mg/kg IV group and 2 & 5 mg/kg PO group). Blood was drawn into the heparinized tubes after IV (1 and 2 mg/kg) or PO (2 and 5 mg/kg) administration and was immediately centrifuged at 10,000 rpm for 5 min. […] The supernatant of the centrifuged samples (plasma) were transferred to the clean tubes and stored at −20 °C until analysis.
During the sample preparation of the PK samples, QC samples were included for the assurance of the analytical run.

[2] = In-house metabolic stability study (rat liver microsome); type: in vitro ADME; conditions: liver microsomes, read-out: in vitro intrinsic clearance
[3] = Preliminary stability assessment in rat plasma QC samples; type: physicochemical; conditions: for Mean Accuracy (%), post-preparative stability: processed rat plasma samples, 24 h, 4 °C; for Mean Accuracy (%), long-term stability: 2 weeks; for Mean Accuracy (%), long-term stability / Mean Accuracy (%), freeze-thaw stability: −80 °C; for Mean Accuracy (%), freeze-thaw stability: 3 cycles; for Mean Accuracy (%), short term stability: 4 h, RT
Protocol: Each stability assessment was carried out in blank rat plasma. Three levels of QC (low, medium and high) were used in the short-term, freeze-thaw, long-term and post-preparative stability assessments and two levels of QC (medium & high) were used in stock solution stability assessment. The short term stability assessment was carried out at room temperature (RT) over 4 h and the results obtained were compared with the control (0 min). In the long-term stability assessment, the samples kept frozen at −80 °C for 2 weeks were compared with the freshly prepared control group samples. The freeze-thaw stability was evaluated over three cycles of freezing (−80 °C) and thawing (RT). […] As a separate stock-solution stability assessment, the vipadenant stock-solution prepared at 1 mg/mL (DMSO) was stored at −80 °C for 6 months and its stability was evaluated. The stability test results were evaluated by confirming that the mean accuracy (%) of the nominal value which should be within ± 25% range.

[4] = Stock solution stability assessment (1 mg/mL in DMSO); type: physicochemical; conditions: for Mean Accuracy (%), stock storage stability: DMSO stock, 6 months, −80°C
Protocol: Each stability assessment was carried out in blank rat plasma. Three levels of QC (low, medium and high) were used in the short-term, freeze-thaw, long-term and post-preparative stability assessments and two levels of QC (medium & high) were used in stock solution stability assessment. The short term stability assessment was carried out at room temperature (RT) over 4 h and the results obtained were compared with the control (0 min). In the long-term stability assessment, the samples kept frozen at −80 °C for 2 weeks were compared with the freshly prepared control group samples. The freeze-thaw stability was evaluated over three cycles of freezing (−80 °C) and thawing (RT). The post-preparative stability was assessed for the QC samples kept in an auto-sampler (10 °C) for 24 h. As a separate stock-solution stability assessment, the vipadenant stock-solution prepared at 1 mg/mL (DMSO) was stored at −80 °C for 6 months and its stability was evaluated. The stability test results were evaluated by confirming that the mean accuracy (%) of the nominal value which should be within ± 25% range.

[5] = male, Sprague-Dawley, plasma, rat, IV 1 mg/kg
[6] = male, Sprague-Dawley, plasma, rat, IV 2 mg/kg
[7] = male, Sprague-Dawley, plasma, rat, PO 2 mg/kg
[8] = male, Sprague-Dawley, plasma, rat, PO 5 mg/kg
[9] = rat plasma, nominal QC 15 ng/mL
[10] = rat plasma, nominal QC 165 ng/mL
[11] = rat plasma, nominal QC 1820 ng/mL

`Cc1cc(Cn2nnc3c(-c4ccco4)nc(N)nc32)ccc1N` [vipadenant, Vipadenant] gave an AUC(0-t) [1, 5] of 451 ng·h/mL, a Tmax [1, 5] of 2.6 min and a clearance [1, 5] of 37.8 ± 7.2 mL/min/kg. It also gave a half-life [1, 5] of 48 ± 5.8 min, a Cmax [1, 5] of 2210 ± 1160 ng/mL and a Vd [1, 5] of 1.08 ± 0.223 L/kg. It also gave an AUC(0-t) [1, 6] of 1510 ng·h/mL, a Tmax [1, 6] of 2 min and a clearance [1, 6] of 22.5 ± 4.3 mL/min/kg. For the same compound, the half-life [1, 6] was 71.2 ± 8.5 min, the Cmax [1, 6] was 3090 ± 222 ng/mL and the Vd [1, 6] was 1.21 ± 0.174 L/kg. It also gave an AUC(0-t) [1, 7] of 279 ng·h/mL, a Tmax [1, 7] of 7.5 min and a half-life [1, 7] of 65.2 ± 20.2 min. For the same compound, the Cmax [1, 7] was 230 ± 88 ng/mL, the AUC(0-t) [1, 8] was 887 ng·h/mL and the Tmax [1, 8] was 30 min. For the same compound, the half-life [1, 8] was 116 ± 59 min, the Cmax [1, 8] was 296 ± 87.3 ng/mL and the bioavailability ([1]; male, Sprague-Dawley, plasma, rat, PO 2 and 5 mg/kg vs IV 1 and 2 mg/kg, read-out: BA (average bioavailability)) was 30.4 ± 8.9%. The “clearance (in words)” value ([1]; rat IV study) was “low to moderate clearance”, the CLint scaled [2] was 20 mL/min/kg and the “time processed samples stable” value ([3]; auto-sampler storage condition (10 °C)) was “at least 24 h”. For the same compound, the “Mean Accuracy (%), post-preparative stability” value ([3]; nominal QC 15 ng/mL) was 114.8%, the “Mean Accuracy (%), post-preparative stability” value ([3]; nominal QC 165 ng/mL) was 99.2% and the “Mean Accuracy (%), post-preparative stability” value ([3]; nominal QC 1820 ng/mL) was 94.9%. The “Mean Accuracy (%), long-term stability” value [3, 9] was 111.8%, the “Mean Accuracy (%), long-term stability” value [3, 10] was 104.1% and the “Mean Accuracy (%), long-term stability” value [3, 11] was 103.7%. For the same compound, the “Mean Accuracy (%), freeze-thaw stability” value [3, 9] was 118.8%, the “Mean Accuracy (%), freeze-thaw stability” value [3, 10] was 88.5% and the “Mean Accuracy (%), freeze-thaw stability” value [3, 11] was 91.1%. For the same compound, the “Mean Accuracy (%), short term stability” value [3, 9] was 97.8%, the “Mean Accuracy (%), short term stability” value [3, 10] was 90.5% and the “Mean Accuracy (%), short term stability” value [3, 11] was 92.6%. For the same compound, the “freeze-thaw stability (in words)” value ([3]; rat plasma, three cycles of freeze-thawing (RT vs. −80 °C)) was “stable”, the “time stable, long-term stability test” value ([3]; rat plasma, −80 °C storage) was “at least 2 weeks” and the “time stable in rat plasma QC sample” value ([3]; room temperature) was “at least 4 h”. For the same compound, the “Mean Accuracy (%), stock storage stability” value ([4]; nominal QC 165 ng/mL) was 102.5%, the “Mean Accuracy (%), stock storage stability” value ([4]; nominal QC 1820 ng/mL) was 95.6% and the “time stock solution showed stability” value ([4]; stock solution prepared in DMSO) was 6 months.
